System: 349418-098-R-PDC complex spheroid viability
Assay: Anticancer human tumor 349418-098-R-PDC patient-derived lung adenocarcinoma cell line growth inhibition [RAS]
Conditions: for viability, T/C: stronger effect = lower value
Summary of the method: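 Multi-cell-type spheroids: tumor cells plus HUVEC endothelial cells and mesenchymal stem cells. RAS-pathway inhibitors were combined with targeted agents, each dosed in half-log steps down from clinical Cmax, or from 10 microM when Cmax was unknown.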

[1] = curve of first compound, second compound 0.000949 µM
[2] = curve of first compound, second compound 0.003 µM
[3] = curve of first compound, second compound 0.00949 µM
[4] = curve of first compound, second compound 0.03 µM
[5] = curve of first compound, second compound 0.0949 µM
[6] = curve of first compound, second compound 0.3 µM
[7] = second compound 0.000949 µM, first compound 0.0316 µM
[8] = second compound 0.000949 µM, first compound 0.1 µM
[9] = second compound 0.000949 µM, first compound 0.316 µM
[10] = second compound 0.000949 µM, first compound 1 µM
[11] = second compound 0.000949 µM, first compound 3.16 µM
[12] = second compound 0.000949 µM, first compound 10 µM
[13] = second compound 0.003 µM, first compound 0.0316 µM
[14] = second compound 0.003 µM, first compound 0.1 µM
[15] = second compound 0.003 µM, first compound 0.316 µM
[16] = second compound 0.003 µM, first compound 1 µM
[17] = second compound 0.003 µM, first compound 3.16 µM
[18] = second compound 0.003 µM, first compound 10 µM
[19] = second compound 0.00949 µM, first compound 0.0316 µM
[20] = second compound 0.00949 µM, first compound 0.1 µM
[21] = second compound 0.00949 µM, first compound 0.316 µM
[22] = second compound 0.00949 µM, first compound 1 µM
[23] = second compound 0.00949 µM, first compound 3.16 µM
[24] = second compound 0.00949 µM, first compound 10 µM
[25] = second compound 0.03 µM, first compound 0.0316 µM
[26] = second compound 0.03 µM, first compound 0.1 µM
[27] = second compound 0.03 µM, first compound 0.316 µM
[28] = second compound 0.03 µM, first compound 1 µM
[29] = second compound 0.03 µM, first compound 3.16 µM
[30] = second compound 0.03 µM, first compound 10 µM
[31] = second compound 0.0949 µM, first compound 0.0316 µM
[32] = second compound 0.0949 µM, first compound 0.1 µM
[33] = second compound 0.0949 µM, first compound 0.316 µM
[34] = second compound 0.0949 µM, first compound 1 µM
[35] = second compound 0.0949 µM, first compound 3.16 µM
[36] = second compound 0.0949 µM, first compound 10 µM
[37] = second compound 0.3 µM, first compound 0.0316 µM
[38] = second compound 0.3 µM, first compound 0.1 µM
[39] = second compound 0.3 µM, first compound 0.316 µM
[40] = second compound 0.3 µM, first compound 1 µM
[41] = second compound 0.3 µM, first compound 3.16 µM
[42] = second compound 0.3 µM, first compound 10 µM
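Note: spheroids exposed to compound for seven days before viability readout.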

CCC(CC)c1cc(NC2CCC(N)C2)n2nccc2n1 (stereo not drawn) + CCn1c(-c2cc(N3CCN(C)CC3)cnc2C(C)OC)c2c3cc(ccc31)-c1csc(n1)CC(NC(=O)C1CC1C)C(=O)N1CCCC(N1)C(=O)OCC(C)(C)C2
IC50 [1]: 825 nM | IC50 [2]: 1050 nM | IC50 [3]: 1140 nM | IC50 [4]: 842 nM | IC50 [5]: 985 nM | IC50 [6]: 986 nM | viability, T/C [7]: 96.1% | viability, T/C [8]: 91.7% | viability, T/C [9]: 98.7% | viability, T/C [10]: 40.8% | viability, T/C [11]: 2.44% | viability, T/C [12]: 2.65% | viability, T/C [13]: 103% | viability, T/C [14]: 106% | viability, T/C [15]: 96.5% | viability, T/C [16]: 52.7% | viability, T/C [17]: 2.69% | viability, T/C [18]: 2.78% | viability, T/C [19]: 94.8% | viability, T/C [20]: 94.3% | viability, T/C [21]: 90% | viability, T/C [22]: 56.3% | viability, T/C [23]: 2.15% | viability, T/C [24]: 2.27% | viability, T/C [25]: 107% | viability, T/C [26]: 103% | viability, T/C [27]: 94.1% | viability, T/C [28]: 42.8% | viability, T/C [29]: 2.26% | viability, T/C [30]: 2.15% | viability, T/C [31]: 119% | viability, T/C [32]: 103% | viability, T/C [33]: 99.8% | viability, T/C [34]: 50.7% | viability, T/C [35]: 2.85% | viability, T/C [36]: 2.9% | viability, T/C [37]: 116% | viability, T/C [38]: 107% | viability, T/C [39]: 108% | viability, T/C [40]: 49.4% | viability, T/C [41]: 2.38% | viability, T/C [42]: 2.44%

CCc1c2c(nc3ccc(O)cc13)-c1cc3c(c(=O)n1C2)COC(=O)[C@]3(O)CC + CCn1c(-c2cccnc2C(C)OC)c2c3cc(ccc31)N1CCOC(CC(NC(=O)C(C(C)C)N(C)C(=O)C3(F)CCN(C(=O)C#CC(C)(C)N(C)C)CC3)C(=O)N3CCCC(N3)C(=O)OCC(C)(C)C2)C1
IC50 [1]: 2.21 nM | IC50 [2]: 2.57 nM | IC50 [3]: 2.86 nM | IC50 [4]: 2.62 nM | IC50 [5]: 2.42 nM | IC50 [6]: 1.43 nM | viability, T/C (second compound 0.000949 µM, first compound 0.000949 µM): 77.2% | viability, T/C (second compound 0.000949 µM, first compound 0.003 µM): 40.1% | viability, T/C (second compound 0.000949 µM, first compound 0.00949 µM): 10.9% | viability, T/C (second compound 0.000949 µM, first compound 0.03 µM): 4.7% | viability, T/C (second compound 0.000949 µM, first compound 0.0949 µM): 2.54% | viability, T/C (second compound 0.000949 µM, first compound 0.3 µM): 2.43% | viability, T/C (second compound 0.003 µM, first compound 0.000949 µM): 99.5% | viability, T/C (second compound 0.003 µM, first compound 0.003 µM): 42.5% | viability, T/C (second compound 0.003 µM, first compound 0.00949 µM): 13.3% | viability, T/C (second compound 0.003 µM, first compound 0.03 µM): 6.22% | viability, T/C (second compound 0.003 µM, first compound 0.0949 µM): 2.99% | viability, T/C (second compound 0.003 µM, first compound 0.3 µM): 2.08% | viability, T/C (second compound 0.00949 µM, first compound 0.000949 µM): 98.7% | viability, T/C (second compound 0.00949 µM, first compound 0.003 µM): 47.9% | viability, T/C (second compound 0.00949 µM, first compound 0.00949 µM): 15.6% | viability, T/C (second compound 0.00949 µM, first compound 0.03 µM): 5.26% | viability, T/C (second compound 0.00949 µM, first compound 0.0949 µM): 2.91% | viability, T/C (second compound 0.00949 µM, first compound 0.3 µM): 2.15% | viability, T/C (second compound 0.03 µM, first compound 0.000949 µM): 86.4% | viability, T/C (second compound 0.03 µM, first compound 0.003 µM): 45.1% | viability, T/C (second compound 0.03 µM, first compound 0.00949 µM): 14.1% | viability, T/C (second compound 0.03 µM, first compound 0.03 µM): 5.2% | viability, T/C (second compound 0.03 µM, first compound 0.0949 µM): 2.57% | viability, T/C (second compound 0.03 µM, first compound 0.3 µM): 2.19% | viability, T/C (second compound 0.0949 µM, first compound 0.000949 µM): 94.7% | viability, T/C (second compound 0.0949 µM, first compound 0.003 µM): 39.9% | viability, T/C (second compound 0.0949 µM, first compound 0.00949 µM): 11.3% | viability, T/C (second compound 0.0949 µM, first compound 0.03 µM): 5.33% | viability, T/C (second compound 0.0949 µM, first compound 0.0949 µM): 2.49% | viability, T/C (second compound 0.0949 µM, first compound 0.3 µM): 1.47% | viability, T/C (second compound 0.3 µM, first compound 0.000949 µM): 65.3% | viability, T/C (second compound 0.3 µM, first compound 0.003 µM): 22.4% | viability, T/C (second compound 0.3 µM, first compound 0.00949 µM): 7.03% | viability, T/C (second compound 0.3 µM, first compound 0.03 µM): 4.31% | viability, T/C (second compound 0.3 µM, first compound 0.0949 µM): 2.68% | viability, T/C (second compound 0.3 µM, first compound 0.3 µM): 1.47%

CC1(O)CCCC1n1c(=O)c(C(F)F)cc2cnc(NC3CCN(S(C)(=O)=O)CC3)nc21 (stereo not drawn) + CCn1c(-c2cccnc2C(C)OC)c2c3cc(ccc31)N1CCOC(CC(NC(=O)C(C(C)C)N(C)C(=O)C3(F)CCN(C(=O)C#CC(C)(C)N(C)C)CC3)C(=O)N3CCCC(N3)C(=O)OCC(C)(C)C2)C1
IC50 [1]: 54.1 nM | IC50 [2]: 54.9 nM | IC50 [3]: 76.3 nM | IC50 [4]: 71 nM | IC50 [5]: 64.2 nM | IC50 [6]: 31.6 nM | viability, T/C [7]: 60.9% | viability, T/C [8]: 35.5% | viability, T/C [9]: 27.6% | viability, T/C [10]: 21.5% | viability, T/C [11]: 18.8% | viability, T/C [12]: 2.67% | viability, T/C [13]: 60.3% | viability, T/C [14]: 38.4% | viability, T/C [15]: 24.2% | viability, T/C [16]: 20.4% | viability, T/C [17]: 17.7% | viability, T/C [18]: 2.71% | viability, T/C [19]: 67.8% | viability, T/C [20]: 45.8% | viability, T/C [21]: 23.9% | viability, T/C [22]: 20.4% | viability, T/C [23]: 15.9% | viability, T/C [24]: 3.42% | viability, T/C [25]: 70.3% | viability, T/C [26]: 39.7% | viability, T/C [27]: 24.8% | viability, T/C [28]: 19.2% | viability, T/C [29]: 20% | viability, T/C [30]: 2.63% | viability, T/C [31]: 74% | viability, T/C [32]: 31.6% | viability, T/C [33]: 22.3% | viability, T/C [34]: 19.5% | viability, T/C [35]: 16.4% | viability, T/C [36]: 2.35% | viability, T/C [37]: 52.5% | viability, T/C [38]: 31.6% | viability, T/C [39]: 22.4% | viability, T/C [40]: 19% | viability, T/C [41]: 18.4% | viability, T/C [42]: 2.97%

CC(Nc1ccc2c(c1)OCCn1cc(N3C(=O)OCC3C(F)F)nc1-2)C(N)=O (stereo not drawn) + CCn1c(-c2cccnc2C(C)OC)c2c3cc(ccc31)N1CCOC(CC(NC(=O)C(C(C)C)N(C)C(=O)C3(F)CCN(C(=O)C#CC(C)(C)N(C)C)CC3)C(=O)N3CCCC(N3)C(=O)OCC(C)(C)C2)C1
IC50 [1]: 36.4 nM | IC50 [2]: 99.4 nM | IC50 [3]: 72.4 nM | IC50 [4]: 278 nM | IC50 [5]: < 31.6 nM | IC50 [6]: 39.9 nM | viability, T/C [7]: 72.9% | viability, T/C [8]: 36.7% | viability, T/C [9]: 17.7% | viability, T/C [10]: 17.2% | viability, T/C [11]: 101% | viability, T/C [12]: 16.2% | viability, T/C [13]: 80.3% | viability, T/C [14]: 56.2% | viability, T/C [15]: 30.2% | viability, T/C [16]: 19.6% | viability, T/C [17]: 99.2% | viability, T/C [18]: 12.9% | viability, T/C [19]: 73.4% | viability, T/C [20]: 43.6% | viability, T/C [21]: 25.2% | viability, T/C [22]: 14.9% | viability, T/C [23]: 94.2% | viability, T/C [24]: 11.8% | viability, T/C [25]: 67.6% | viability, T/C [26]: 43% | viability, T/C [27]: 32.2% | viability, T/C [28]: 24.3% | viability, T/C [29]: 112% | viability, T/C [30]: 14.7% | viability, T/C [31]: 55.9% | viability, T/C [32]: 44.5% | viability, T/C [33]: 25.9% | viability, T/C [34]: 17.9% | viability, T/C [35]: 98.1% | viability, T/C [36]: 10.4% | viability, T/C [37]: 53.7% | viability, T/C [38]: 37.8% | viability, T/C [39]: 21.5% | viability, T/C [40]: 19% | viability, T/C [41]: 65% | viability, T/C [42]: 14.5%

CCC(CC)c1cc(NC2CCC(N)C2)n2nccc2n1 (stereo not drawn)
viability, T/C (compound 0.0316 µM): 101% [middle of 4 runs] | viability, T/C (compound 1 µM): 41.9% [middle of 4 runs] | viability, T/C (compound 3.16 µM): 2.95% [middle of 4 runs] | viability, T/C (compound 10 µM): 2.61% [middle of 4 runs] | IC50 (curve of compound): 778 nM [middle of 4 runs]

From PubChem BioAssay AID2060904 (Molecular Pharmacology Branch, DTP, NCI, 2025)
